The text below walks through data of patent US20210179577A1, “AROMATIC SULFONAMIDE DERIVATIVES FOR THE TREATMENT OF ISCHEMIC STROKE” (Bayer Aktiengesellschaft, priority 2017, published 2021).

What all share (type): cell-based
In one experiment the target is T1, hP2X4 (Homo sapiens, UniProt Q99571).
T1 construct: expressed in transfected cells; host or cells: HEK-293 mito-Photina, clone 2a/4
T1 sequence (Q99571 1-388): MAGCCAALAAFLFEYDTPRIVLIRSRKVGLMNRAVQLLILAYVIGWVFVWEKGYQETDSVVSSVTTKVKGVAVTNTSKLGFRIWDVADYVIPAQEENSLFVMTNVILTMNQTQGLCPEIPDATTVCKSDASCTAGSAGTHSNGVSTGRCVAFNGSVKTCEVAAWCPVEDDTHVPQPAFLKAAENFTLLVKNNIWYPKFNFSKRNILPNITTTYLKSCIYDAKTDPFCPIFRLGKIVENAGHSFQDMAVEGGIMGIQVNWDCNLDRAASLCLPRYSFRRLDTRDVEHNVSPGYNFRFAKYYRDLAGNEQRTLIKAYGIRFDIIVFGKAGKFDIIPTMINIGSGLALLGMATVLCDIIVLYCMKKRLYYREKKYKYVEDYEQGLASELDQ
Put plainly: Human P2X4 HEK Cell Electrophysiology Assay B (QPatch). The conditions noted are these: ATP 5 microM, -90 mV; read-out: Human P2X4 HEK Cells (QPatch Electrophysiology) avg IC50. As to the method:
Cell culture conditions: HEK-293 mito-Photina pcDNA3(neo-)/pPURO N/pcDNA3_P2RX4, clone 2a/4 (HEK-293 mito-Photina/hP2RX4) cells were cultured in EMEM Minimum Essential Medium Eagle with Earl's salts Balanced Salt Solution (BioWhittaker cat. BE12-125F) supplemented with 5 mL of 200 mM Ultraglutaminel (BioWhittaker cat. BE17-605E/U1), 5 mL of 100× Penicillin/Streptomycin (BioWhittaker cat. DE17-602E; final concentration 1%), 4 mL of 50 mg/mL G418 (Sigma cat. G8168-100 mL; final concentration 400 μg/mL), 10 μL of 10 mg/mL Puromicin (InvivoGen cat. ant-pr-1; final concentration 0.2 μg/mL) and 50 mL of Fetal Bovine Serum (Sigma cat. F7524; final concentration 10%).
Experimentalprotocol: HEK-293 cell lines are seeded 72 or 96 hours before experiment, at a concentration of 5 or 2.5 million cells, respectively onto a T225 flask. Just before the experiments cells are washed twice with D-PBS w/o Ca2+/Mg2+(Euroclone cat. ECB4004L) and detached from the flask with trypsin-EDTA (Sigma, cat. T4174 diluted 1/10). Cells are then re-suspended in the suspension solution: 25 mL EX-CELL ACF CHO medium (Sigma, cat. C5467); 0.625 mL HEPES (BioWhittaker, cat. BE17-737E); 0.25 mL of 100× Penicillin/Streptomycin (BioWhittaker, cat. DE17-602E), 0.1 mL of Soybean Trypsin Inhibitor 10 mg/mL (Sigma, cat. T6522) and placed on the QPatch 16X.
Compound preparation and storage: Compound stock solutions (10 mM; 100% DMSO; stored at −20° C.) were used. Fresh solutions from stock (1 or 3 mM, 100% DMSO) were prepared just before the experiments (0.1% final DMSO concentration).
Patch clamp analysis with QPatch16X (FIG. 1): Standard whole-cell voltage clamp experiments are performed at room temperature using the multihole technology.
For the voltage clamp experiments on hP2X4, data are sampled at 2 KHz. After establishment of the seal and the passage in the whole cell configuration, the cells are held at −90 mV and the hP2X4 current is evoked by the agonist in the absence (vehicle period, i.e. 0.1% DMSO) or in the presence of the compound under investigation at increasing concentrations; see the application protocol in FIG. 1.
Output: the maximum inward current induced by the agonist (ATP 5 microM).
The intracellular solution contained (mM) 135 CsF, 10 NaCl, 1 EGTA, 10 HEPES (pH 7.2 with CsOH) whereas the extracellular solution (mM) 145 NaCl, 4 KCl, 0.5 MgCl2, 1 CaCl2, […], 10 Glucose (pH 7.4 with NaOH).
For data collection, the Sophion software was used and the analysis was performed off-line using Excel and GraphPad Prism.
When possible, i.e. when the % of inhibition with the highest concentration tested was more than 50%, the dose-response curves data were fitted with the following equation:
[X is log of concentration; Y is normalized response (100% down to 0%, decreasing as X increases); Log IC50 same log units as X; HillSlope is unitless slope factor or hill slope]
For orientation: In patch-clamp work, channel activity is measured electrically.

Experiment [1] concerns the target T2, human P2X4 (Homo sapiens, UniProt Q99571).
T2 sequence (Q99571 1-388): T1 sequence (Q99571 1-388)
Put plainly: Human P2X4 HEK Cell FLIPR Assay. More on the design: expressed in transfected cells; host or cells: HEK293. The following applies: HEK293 cells, agonist Bz-ATP at EC80. As to the method:
HEK293 cells stably expressing human P2X4 were plated in poly-D-lysine-coated 384-well plates at a seeding density of 30000 cells/well and incubated overnight. P2X4 function was assessed by measuring intracellular calcium changes using the calcium-chelating dye Fluo8-AM (Molecular Devices) on a fluorescent imaging plate reader (FLEX/FLIPR station; Molecular Devices). On the day of the assay, the medium was removed and the cells were incubated for 30 min at 37° C. and 5% CO2 in 30 μL of dye buffer (Hank's balanced salt solution, 10 mM HEPES, 1.8 mM CaCl2, 1 mM MgCl2, 2 mM probenecid, 5 mM D-glucose monohydrate, 5 μM Fluo8-AM, pH=7.4). Compounds diluted in probenecid buffer (Hank's balanced salt solution, 10 mM HEPES, 1.8 mM CaCl2, 1 mM MgCl2, 2 mM probenecid, 5 mM D-glucose monohydrate, pH=7.4) were added in a volume of 10 μL and allowed to incubate for 30 min at room temperature. The final assay DMSO concentration was 0.5%. The agonist, Bz-ATP (Tocris), was added in a volume of 10 μL at a concentration representing the EC80 value. The EC80 value of Bz-ATP was determined each assay day prior to compound profiling. The fluorescence was measured for an interval of 120 sec at 2 sec intervals. The excitation and emission wavelengths used to monitor fluorescence were 470-495 nm and 515-575 nm, respectively. The data was analyzed based on the increase in peak relative fluorescence units (RFU) compared to the basal fluorescence and the data was normalized to the agonist control. The compounds were tested in triplicates per plate and mean values were plotted in Excel XL-Fit to determine IC50 values, percentage of maximal inhibition and the Hill coefficients.

In a further experiment the target is T3, mouse P2X4 (Mus musculus, UniProt Q9JJX6).
T3 construct: expressed in transfected cells; host or cells: 1321N1 astrocytoma cells
T3 sequence (Q9JJX6 1-388): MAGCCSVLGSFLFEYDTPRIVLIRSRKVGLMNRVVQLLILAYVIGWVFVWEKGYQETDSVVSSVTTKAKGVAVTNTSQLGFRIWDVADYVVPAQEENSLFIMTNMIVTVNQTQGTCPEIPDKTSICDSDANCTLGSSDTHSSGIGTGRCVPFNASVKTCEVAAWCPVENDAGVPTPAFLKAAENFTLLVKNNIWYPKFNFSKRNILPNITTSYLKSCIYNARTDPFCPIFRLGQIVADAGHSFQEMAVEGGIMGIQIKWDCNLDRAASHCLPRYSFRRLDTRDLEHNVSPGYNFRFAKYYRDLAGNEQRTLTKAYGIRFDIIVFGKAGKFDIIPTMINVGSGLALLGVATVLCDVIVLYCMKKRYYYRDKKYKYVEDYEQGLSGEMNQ
Briefly: FLIPR assay, mouse P2X4 1321N1 Astrocytoma Cells. The following applies: 1321N1 Astrocytoma cells. How it is done: (§1) 1321N1 Astrocytoma cells stably expressing human P2X4 or rat P2X4 or mouse P2X4 were plated in Collagen ITO-treated microplate at a seeding density of 10000 cells/well and incubated overnight. P2X4 function was assessed by measuring intracellular calcium changes using the calcium-chelating dye Fluo8-AM (Molecular Devices) on a fluorescent imaging plate reader (FLEX/FLIPR station; Molecular Devices). On the day of the assay, the medium was removed and the cells were incubated for 30 min at […] and 5% CO2 in 30 μL of dye buffer (Hank's balanced salt solution, 10 mM HEPES, 1.8 mM CaCl2, 1 mM MgCl2, 2 mM probenecid, 5 mM D-glucose monohydrate, 5 μM Fluo8-AM, pH=7.4). Compounds diluted in probenecid buffer (Hank's balanced salt solution, 10 mM HEPES, 1.8 mM CaCl2, 1 mM MgCl2, 2 mM probenecid, 5 mM D-glucose monohydrate, pH=7.4) were added in a volume of 10 μL and allowed to incubate for 30 min at room temperature. The final assay DMSO concentration was 0.25%. The agonist, Mg-ATP (Sigma), was added in a volume of 10 μL at a concentration representing the EC80 value. EC80 was determined to be 0.5 μM for human and mouse P2X4 and 5 μM for rat P2X4. The fluorescence was measured for an interval of 120 sec at 2 sec intervals. The excitation and emission wavelengths used to monitor fluorescence were 470-495 nm and 515-575 nm, respectively. The data was analyzed based on the increase in peak relative fluorescence units (RFU) compared to the basal fluorescence and the data was normalized to the agonist control. The compounds were tested in triplicates per plate and mean values were plotted in Excel XLFit to determine IC50 values, percentage of maximal inhibition and the Hill coefficients.

For experiment [2], the target named is T2, human P2X4. Put plainly: FLIPR assay, human P2X4 1321N1 Astrocytoma Cells. More on the design: expressed in transfected cells. The conditions noted are these: 1321N1 Astrocytoma cells. How it is done: as §1
The target in a further experiment is T4, rat P2X4 (Rattus norvegicus, UniProt P51577).
T4 construct: expressed in transfected cells; host or cells: 1321N1 astrocytoma cells
T4 sequence (P51577 1-388): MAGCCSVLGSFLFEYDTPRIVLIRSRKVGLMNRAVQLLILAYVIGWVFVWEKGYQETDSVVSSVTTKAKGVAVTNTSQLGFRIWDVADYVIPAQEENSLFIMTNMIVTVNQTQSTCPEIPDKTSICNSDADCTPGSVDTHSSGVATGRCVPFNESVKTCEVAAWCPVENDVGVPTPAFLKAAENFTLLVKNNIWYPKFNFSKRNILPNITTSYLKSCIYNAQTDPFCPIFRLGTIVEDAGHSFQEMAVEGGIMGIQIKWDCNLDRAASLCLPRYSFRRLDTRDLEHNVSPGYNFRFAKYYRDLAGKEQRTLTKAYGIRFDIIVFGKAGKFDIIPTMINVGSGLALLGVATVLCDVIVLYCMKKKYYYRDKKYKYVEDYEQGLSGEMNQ
Briefly: FLIPR assay, rat P2X4 1321N1 Astrocytoma Cells. The conditions noted are these: 1321N1 Astrocytoma cells. As to the method:
as §1

Regarding `NS(=O)(=O)c1cc(NC(=O)Cc2ccccc2Cl)ccc1-c1cnn(C2CC2)c1` [Example 349, 2-(2-Chlorophenyl)-N-[4-(1-cyclopropyl-1H-pyrazol-4-yl)-3-sulfamoylphenyl]acetamide], the values for the IC50 at hP2X4 and on human P2X4 [1] were 117 nM and 37 nM, respectively.
In the same order, the values of `Cn1cc(-c2ccc(NC(=O)Cc3ccccc3Cl)cc2S(N)(=O)=O)cn1` [Example 360, 2-(2-Chlorophenyl)-N-[4-(1-methyl-1H-pyrazol-4-yl)-3-sulfamoylphenyl]acetamide] are 205 nM and 132 nM.
In the same order, the values of `NS(=O)(=O)c1cc(NC(=O)Cc2ccccc2F)cnc1-n1cc(C(F)(F)F)cn1` [Example 381, 2-(2-Fluorophenyl)-N-{5-sulfamoyl-6-[4-(trifluoromethyl)-1H-pyrazol-1-yl]pyridin-3-yl}acetamide] are 2580 nM and 1240 nM.
With `Nc1ncnc2c1ncn2[C@@H]1O[C@H](COP(=O)(O)OP(=O)([O-])OP(=O)([O-])O)[C@@H](O)[C@H]1O.[Mg+2]` [Mg-ATP, reference compound], the “EC80 of the agonist, mouse P2X4” value on mouse P2X4 worked out at 500 nM. For the same molecule, the “EC80 of the agonist, human P2X4” value on human P2X4 [2] was determined as 500 nM. At rat P2X4, the “EC80 of the agonist, rat P2X4” value worked out at 5000 nM.

A word on the IC50: it is the concentration needed to halve the response being measured.
